Reference: paper PMC6080388 (Journal of Enzyme Inhibition and Medicinal Chemistry, 2017)
Values joined by “and” are separate entries in the source; they are usually repeats but may differ in a detail not shown here. Equal values may be shown once. Read-outs that look alike come from different tables or passages of the source.

What was measured:
[1] = molecular target: T1, AChE (EC 3.1.1.7, from Electrophorus electricus) (Electrophorus electricus, UniProt O42275); assay: biochemical; type: biochemical; settings: for Selectivity for AChE: IC50(BuChE)/IC50(AChE)
T1 construct: purchased Sigma Aldrich (Steinheim, Germany)
Experimental: (§2) The inhibitory activities of the tested compounds towards AChE and BuChE were performed using Ellman’s method[25]. All reagents including AChE (EC 3.1.1.7, from Electrophorus electricus), BuChE (EC 3.1.1.8, from equin serum), DTNB (Ellman’s reagent), and acetylthiocholine iodide (ATC iodide) were purchased from Sigma Aldrich (Steinheim, Germany). Analysis was executed in following procedure: AChE and BuChE solution was made by dissolving enzymes in phosphate buffer (pH 7.4) to obtain 2 and 4 U/ml, respectively. […] The study was performed in triplicate and recorded in 96-well microplates, using multifunctional microplate reader. The assay medium contained DTNB solution 0.4 mg/ml (76 µl), AChE (10 µl), various concentration of the examined compounds (14 µl) and ATC iodine solution (40 µl) at the concentration of 1 mM. For the reference value, 14 µl of the test compound solutions were replaced by phosphate buffer (pH 7.4). […] Inhibition activity was expressed as a percentage of the activity of the tested compound relative to the reference control.

[2] = molecular target: T2, BuChE (EC 3.1.1.8, from equin serum) (Equus caballus, UniProt P81908); assay: biochemical; type: biochemical; settings: for IC50: means ± SEM of three independent experiments, equine serum BuChE; for BuChE inhibitory activity, fold higher than donepezil: in comparison to donepezil
T2 construct: BuChE (EC 3.1.1.8, from equin serum); purchased Sigma Aldrich (Steinheim, Germany); host or cells: equine serum
Experimental: as §2

[3] = molecular target: T3, hyaluronidase from bovine testes Type I-S (Bos taurus, UniProt Q2YDK3); assay: Hyaluronidase inhibition test (turbidimetric); type: biochemical; settings: means ± standard deviation; read-out: HYAL IC50 ± SD
T3 sequence (Q2YDK3 36-553): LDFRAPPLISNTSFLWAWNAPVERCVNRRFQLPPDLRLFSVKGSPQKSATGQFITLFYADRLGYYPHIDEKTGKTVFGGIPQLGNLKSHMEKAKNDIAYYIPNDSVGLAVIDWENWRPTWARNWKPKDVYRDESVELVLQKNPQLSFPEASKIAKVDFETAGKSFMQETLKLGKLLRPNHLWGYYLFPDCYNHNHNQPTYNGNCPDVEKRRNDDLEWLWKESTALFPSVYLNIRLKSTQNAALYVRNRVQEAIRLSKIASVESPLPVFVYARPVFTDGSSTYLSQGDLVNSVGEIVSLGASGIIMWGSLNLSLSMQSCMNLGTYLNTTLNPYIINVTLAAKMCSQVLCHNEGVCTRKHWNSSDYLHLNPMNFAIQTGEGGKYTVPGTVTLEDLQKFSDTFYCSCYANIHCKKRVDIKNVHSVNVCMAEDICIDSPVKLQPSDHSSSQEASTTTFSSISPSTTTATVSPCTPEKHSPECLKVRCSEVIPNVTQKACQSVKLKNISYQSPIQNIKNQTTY
Experimental: The inhibition study of hyaluronidase was carried out by turbidimetric method adapted to the 96-well plates and described previously by Michel et al[32] ^, [33]. […] Mixture was incubated in the dark at 37 °C for 10 min. Then, 40 µl of hyaluronic acid solution (0.03%, Sigma Aldrich, Steinheim, Germany) in monosodium phosphate buffer (pH 5.35) was added to the wells and the plate was incubated in the dark at 37 °C for 45 min. At the end, 300 µl of bovine serum albumin solution (0.1%, Serva) in sodium acetate buffer (pH 3.75) was added to the wells and incubated in the room temperature for 10 min. The changes in turbidity were measured at 600 nm by a microplate reader (BioTek, Winooski, VT). The assay was run out in three experiments in triplicate to calculate IC50 values. Heparin (WZF, Polfa) was used as a positive control.
The inhibition of hyaluronidase by the tested compound was calculated following the equation: % inhibition=100x1-AHA-AAN/AHA-AHYAL where AHA − absorbance of solution without the enzyme (positive control),
AHYAL − absorbance of solution without the tested compound (negative control), AAN − absorbance of solution with the tested compound.

Aβ1–42 = molecular target: T4, Aβ1–42 (Homo sapiens, UniProt P05067); assay: Aβ1–42 aggregation assay, Thioflavin T fluorescence; type: biochemical; settings: Aβ1–42 12.58 μM, 24 h
T4 construct: final Aβ1–42 concentration – 12.58 μM
Experimental: The Aβ1–42 aggregation assay was established using the Thioflavin T fluorescence method[22] ^, [26] ^, [27]. Experiment was performed by incubating the peptides previously dissolved in DMSO at room temperature for 24 h (final Aβ1–42 concentration – 12.58 μM) with or without the tested compounds at the different concentrations (5, 10, 25, 50, and100 μM). After incubation all samples were diluted in PBS – phosphate buffer (pH 7.4) containing Thioflavin T (5 μM). Subsequently, after 5 min incubation with the dye, fluorescence signal was measured (excitation wavelength 446 nm, emission wavelength 490 nm) on a monochromator based multimode microplate reader (Synergy H1, Bio-Tek, Winooski, VT), adapted for 96-well microtiter plates. Next the percent of inhibition on aggregation was calculated by the following expression: 100 – (IFi/IFo × 100). IFi and IFo were the fluorescence intensities obtained for absorbance in the presence and absence of inhibitors, respectively. The background values were deducted in the calculations.

EqBuChE = molecular target: T5, EqBuChE (Equus caballus, UniProt P81908); assay: Kinetic characterisation of BuChE inhibition (Lineweaver–Burk); type: biochemical; settings: for Vmax: BuChE
T5 construct: BuChE (EC 3.1.1.8, from equin serum); purchased Sigma Aldrich (Steinheim, Germany); host or cells: equine serum
Experimental: Kinetic analysis was performed using Ellman’s test[4] ^, [25]. […]. Total volume of tested medium (140 µl) comprised: DTNB solution (0.4 mg/ml), BuChE solution (4 U/ml), solution of the examined compound and different concentrations of the substrate ATC iodide. Absorbance was detected at 412 nm at room temperature after 8 min. Results were calculated and presented on the Lineweaver–Burk plot. Received KM and Vmax values allowed to define the type of enzyme inhibition.

EeAChE = molecular target: T6, EeAChE (Electrophorus electricus, UniProt O42275); type: biochemical; settings: for Vmax: AChE
T6 construct: purchased Sigma Aldrich (Steinheim, Germany)
Experimental: The kinetic characterisation was evaluated according to the Ellman’s method[4] ^, [25]. […]. The tested medium contained: DTNB solution (0.4 mg/ml), AChE solution (2 U/ml), solution of the examined compound and different concentrations of the substrate ACT iodide in a total volume of […]. Absorbance were detected at 412 nm at room temperature after 6 min. Received date were calculated and presented on the Lineweaver–Burk plot. Determinated the KM and Vmax values were used to define the type of enzyme inhibition.

[4] = test system: ATCC CCL-185 cell line (Epithelial cells from human lungs, carcinoma); assay: MTT cytotoxicity assay on ATCC CCL-185 cells; type: cell-based; settings: 22.22 µM; 48 h
Experimental: (§1) In the experiment, ATCC CCL-185 cell line was used (Epithelial cells from human lungs, carcinoma). Cells were seeded on 96-wells plate (F12 Thermo Fisher medium, Waltham MA) and incubated for 24 h. Then the cells were treated with various concentrations (0.22, 1.11, 2.22, 22.22, and 222.20 µM) of the tested compound dissolved in methanol and incubated for 48 h. Final methanol concentration in each well was 1 µl per 100 µl of medium. As a control, the same medium as for cells breeding was used with addition of 1 µl methanol and without studied compound. As a positive control pure methanol was used. After the time of incubation, procedure was carried out according to Vybrant MTT Cell Proliferation Assay Kit: cells were labelled with 10 µl of the 12 mM MTT stock solution, incubated at 37 °C for 4 h, all medium but 25 µl was removed from the wells, 50 µl of DMSO was added, incubated for 10 min at 37 °C and the absorbance at 540 nm was measured.

[5] = MTT cytotoxicity assay on ATCC CCL-185 cells; type: cell-based, human; settings: human, ATCC CCL-185 cells (human lung carcinoma epithelial cells), control as 100%, read-out: cell viability
Experimental: as §1

[6] = means ± SEM of three independent experiments, electric eel AChE, read-out: AChE IC50 ± SEM

T4 sequence (P05067 672-713 limits assumed): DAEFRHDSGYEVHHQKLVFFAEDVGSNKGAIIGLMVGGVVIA
T1 sequence (O42275 24-633): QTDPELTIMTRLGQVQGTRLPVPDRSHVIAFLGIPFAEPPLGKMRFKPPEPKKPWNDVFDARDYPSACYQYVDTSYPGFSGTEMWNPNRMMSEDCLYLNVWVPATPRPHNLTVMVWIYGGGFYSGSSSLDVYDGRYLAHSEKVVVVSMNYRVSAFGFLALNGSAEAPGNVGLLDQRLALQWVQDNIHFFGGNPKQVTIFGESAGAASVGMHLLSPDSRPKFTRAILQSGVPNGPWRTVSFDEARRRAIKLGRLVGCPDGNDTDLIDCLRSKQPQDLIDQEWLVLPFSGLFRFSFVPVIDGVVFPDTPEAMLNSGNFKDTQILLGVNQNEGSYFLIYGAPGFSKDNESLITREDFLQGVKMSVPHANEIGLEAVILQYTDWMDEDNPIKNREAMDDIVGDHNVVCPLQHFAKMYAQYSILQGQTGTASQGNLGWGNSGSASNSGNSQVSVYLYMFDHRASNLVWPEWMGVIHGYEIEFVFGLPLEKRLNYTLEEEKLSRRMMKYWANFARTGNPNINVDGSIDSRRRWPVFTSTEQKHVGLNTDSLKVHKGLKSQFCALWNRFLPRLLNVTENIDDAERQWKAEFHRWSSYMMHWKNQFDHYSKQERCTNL
T6 sequence (O42275 24-633): as above
T2 sequence (P81908 whole entry): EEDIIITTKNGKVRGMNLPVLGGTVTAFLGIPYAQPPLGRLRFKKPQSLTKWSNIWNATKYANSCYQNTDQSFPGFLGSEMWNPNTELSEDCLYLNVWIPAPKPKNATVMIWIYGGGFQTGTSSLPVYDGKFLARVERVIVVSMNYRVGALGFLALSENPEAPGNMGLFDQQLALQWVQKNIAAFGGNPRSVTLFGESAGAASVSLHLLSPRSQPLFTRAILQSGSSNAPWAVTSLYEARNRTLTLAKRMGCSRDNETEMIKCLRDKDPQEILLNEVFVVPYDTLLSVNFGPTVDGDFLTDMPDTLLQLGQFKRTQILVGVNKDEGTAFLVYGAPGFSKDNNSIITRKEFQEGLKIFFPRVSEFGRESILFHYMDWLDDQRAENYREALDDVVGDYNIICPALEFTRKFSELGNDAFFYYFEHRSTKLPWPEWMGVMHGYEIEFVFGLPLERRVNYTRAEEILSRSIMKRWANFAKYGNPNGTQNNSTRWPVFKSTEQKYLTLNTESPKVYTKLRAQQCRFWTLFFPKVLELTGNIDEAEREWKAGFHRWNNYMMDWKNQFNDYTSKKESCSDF
T5 sequence (P81908 whole entry): as above

Compound: Cl.O=C(NCCNc1c2c(nc3ccccc13)CCC2)c1cnc(Cl)c(Cl)c1 [3a, 5,6-Dichloro-N-[2-(2,3-dihydro-1H-cyclopenta[b]quinolin-9-ylamino)-ethyl]-nicotinamide hydrochloride]
- Selectivity for AChE [1]: 28.593
- IC50 [1, 6]: 0.065 ± 0.007 µM
- Selectivity for BuChE ([2]; IC50(AChE)/IC50(BuChE)): 0.035
- IC50 [2]: 1.86 ± 0.083 µM

Compound: Heparin
- IC50 [3]: 56.4 ± 0.78 µM

Compound: Cl.O=C(NCCCNc1c2c(nc3ccccc13)CCC2)c1cnc(Cl)c(Cl)c1 [3b, 5,6-Dichloro-N-[3-(2,3-dihydro-1H-cyclopenta[b]quinolin-9-ylamino)-propyl]-nicotinamide hydrochloride]
- Aβ aggregation (%) (Aβ1–42; 3b 5 µM): 74.31%
- Inhibition of Aβ aggregation (%) (Aβ1–42; 3b 5 µM): 25.7% and 25.69%
- Aβ aggregation (%) (Aβ1–42; 3b 10 µM): 74.23%
- Inhibition of Aβ aggregation (%) (Aβ1–42; 3b 10 µM): 25.77%
- Aβ aggregation (%) (Aβ1–42; 3b 25 µM): 51.82%
- Inhibition of Aβ aggregation (%) (Aβ1–42; 3b 25 µM): 48.18%
- Aβ aggregation (%) (Aβ1–42; 3b 50 µM): 45.70%
- Inhibition of Aβ aggregation (%) (Aβ1–42; 3b 50 µM): 54.30%
- Aβ aggregation (%) (Aβ1–42; 3b 100 µM): 7.22%
- Inhibition of Aβ aggregation (%) (Aβ1–42; 3b 100 µM): 92.8% and 92.78%
- IC50 [1]: 0.052 ± 0.002 µM
- Selectivity for AChE [1]: 3.030
- AChE inhibitory potency, times higher than donepezil ([1]; in comparison to donepezil): ~2 times
- Vmax (EqBuChE; inhibitor 3b 0.22 µM): 3333.3 A/min
- Vmax (EqBuChE; inhibitor 3b 0.56 µM): 1666.7 A/min
- type of EqBuChE inhibition (EqBuChE; Lineweaver–Burk plot): mixed type of inhibition
- Vmax (EeAChE; inhibitor 3b 0.11 µM): 312.50 A/min
- Vmax (EeAChE; inhibitor 3b 1.11 µM): 1666.67 A/min
- type of EeAChE inhibition (EeAChE; Lineweaver–Burk plot): mixed type of inhibition
- cell viability [4]: suddenly decreased
- viability at 48 h, 222.2 µM ([5]; 222.20 µM): ~7%
- viability at 48 h ([5]; concentrations from 0.22 to 2.22 µM): ~70%
- Selectivity for BuChE [2]: 0.330
- BuChE inhibitory activity, fold higher than donepezil [2]: 75 fold
- IC50 [2]: 0.158 ± 0.029 µM

Compound: Cl.O=C(NCCCCCCCCNc1c2c(nc3ccccc13)CCC2)c1cnc(Cl)c(Cl)c1 [3g, 5,6-Dichloro-N-[8-(2,3-dihydro-1H-cyclopenta[b]quinolin-9-ylamino)-octyl]-nicotinamide hydrochloride]
- Selectivity for AChE [1]: 0.711
- IC50 [1, 6]: 0.152 ± 0.045 µM
- Selectivity for BuChE ([2]; IC50(AChE)/IC50(BuChE)): 1.407
- IC50 [2]: 0.108 ± 0.006 µM

Compound: Cl.O=C(NCCCCCCCNc1c2c(nc3ccccc13)CCC2)c1cnc(Cl)c(Cl)c1 [3f, 5,6-Dichloro-N-[7-(2,3-dihydro-1H-cyclopenta[b]quinolin-9-ylamino)-heptyl]-nicotinamide hydrochloride]
- Selectivity for AChE [1]: 0.569
- IC50 [1, 6]: 0.125 ± 0.021 µM
- Selectivity for BuChE ([2]; IC50(AChE)/IC50(BuChE)): 1.756
- BuChE inhibitory activity, fold higher than donepezil [2]: 167 fold
- IC50 [2]: 0.071 ± 0.012 µM

Compound: Cl.O=C(NCCCCCNc1c2c(nc3ccccc13)CCC2)c1cnc(Cl)c(Cl)c1 [3d, 5,6-Dichloro-N-[5-(2,3-dihydro-1H-cyclopenta[b]quinolin-9-ylamino)-pentyl]-nicotinamide hydrochloride]
- Selectivity for AChE [1]: 1.615
- IC50 [1, 6]: 0.285 ± 0.038 µM
- Selectivity for BuChE ([2]; IC50(AChE)/IC50(BuChE)): 0.619
- IC50 [2]: 0.46 ± 0.038 µM

Compound: Cl.O=C(NCCCCCCCCCNc1c2c(nc3ccccc13)CCC2)c1cnc(Cl)c(Cl)c1 [3h, 5,6-Dichloro-N-[9-(2,3-dihydro-1H-cyclopenta[b]quinolin-9-ylamino)-nonyl]-nicotinamide hydrochloride]
- Selectivity for AChE [1]: 0.529
- IC50 [1, 6]: 0.155 ± 0.045 µM
- Selectivity for BuChE ([2]; IC50(AChE)/IC50(BuChE)): 1.889
- IC50 [2]: 0.082 ± 0.03 µM

Compound: Cl.O=C(NCCCCCCNc1c2c(nc3ccccc13)CCC2)c1cnc(Cl)c(Cl)c1 [3e, 5,6-Dichloro-N-[6-(2,3-dihydro-1H-cyclopenta[b]quinolin-9-ylamino)-hexyl]-nicotinamide hydrochloride]
- Selectivity for AChE [1]: 2.380
- IC50 [1, 6]: 0.053 ± 0.005 µM
- Selectivity for BuChE ([2]; IC50(AChE)/IC50(BuChE)): 0.420
- IC50 [2]: 0.127 ± 0.014 µM

Compound: Cl.O=C(NCCCCNc1c2c(nc3ccccc13)CCC2)c1cnc(Cl)c(Cl)c1 [3c, 5,6-Dichloro-N-[4-(2,3-dihydro-1H-cyclopenta[b]quinolin-9-ylamino)-butyl]-nicotinamide hydrochloride]
- Selectivity for AChE [1]: 1.071
- IC50 [1, 6]: 0.744 ± 0.046 µM
- Selectivity for BuChE ([2]; IC50(AChE)/IC50(BuChE)): 0.934
- IC50 [2]: 0.797 ± 0.086 µM
